The source of these data is patent US20230372382A1, “USE OF ADENOSINE DIPHOSPHATE RIBOSE FOR ADJUVANT THERAPY WITH RADIATION AND/OR ANTI-CANCER TREATMENT” (PearlsInMires Co., Ltd., priority 2021, published 2023).

Test [1] deals with Liver cancer (Hep G2) cells. Briefly: Xenograft model, combination with anti-cancer drug, tumor volume. Format: in vivo, BALB/c nude mice. The note with it: sorafenib 10 mg/kg oral 5 times a week alone. As for the experimental part:
(§1) Brain (U-87MG), lung (H1975), pancreatic (AsPC-1), or liver (Hep G2) cells (1×10^7 cells) were inoculated into 5-week-old BALB/c nude mice on the back flank, respectively. Then, when tumors were grown to a volume of approximately 150 mm^3, the mice were divided into the control group (control), an anti-cancer drug alone treatment group, and a combination treatment group. […] The tumor size was measured every 6 days using a digital caliper, and the results of changes in tumor volume were compared by the group.
Liver cancer (Hep G2) cells (1×10^7) were inoculated into 5-week-old BALB/c nude mice on the back flank, and the mice were divided into three groups: the control group (Control), single oral administration of 10 mg/kg of sorafenib, and combination administration of sorafenib+10 mg/kg of ADP-ribose. When the tumors were grown to a volume of approximately 150 mm^3, sorafenib was administered orally 5 times a week, and ADP-ribose at 10 mg/kg was injected subcutaneously 3 times a week. The tumor size was measured using a digital caliper, and the results of changes in tumor volume were compared by the group.

The test system of test [2] is Liver cancer (Hep G2) cells. Briefly: Cell death by combination treatment with anti-cancer drug (MTT). To be noted: Homo sapiens, HepG2, 24 h, read-out: cancer cells survived (cell viability).
The test system of test [3] is Brain cancer (U-87MG) cells. The test is described as follows: Xenograft model, combination with anti-cancer drug, tumor volume. Format: in vivo, BALB/c nude mice. To be noted: U-87MG xenograft, Avastin 25 mg/kg intraperitoneal twice a week alone. The method, then:
as §1
Brain cancer (U-87MG) cells (1×10^7) were inoculated into 5-week-old BALB/c nude mice on the back flank, and the mice were divided into three groups: the control group (Control), single intraperitoneal administration of 25 mg/kg of Avastin (ingredient name: bevacizumab), and combination administration of Avastin+10 mg/kg of ADP-ribose. When the tumors were grown to a volume of approximately 150 mm^3, Avastin was administered intraperitoneally twice a week, and ADP-ribose at 10 mg/kg was injected subcutaneously 3 times a week. The tumor size was measured using a digital caliper, and the results of changes in tumor volume were compared by the group.

For test [4], the system named is Lung cancer (H1975) cells. Briefly: Cell death by combination treatment with anti-cancer drug (MTT). Format: cell-based. To be noted: Homo sapiens, NCI-H1975; H1975, osimertinib 1 nM alone, 24 hours; read-out: cancer cells survived (cell viability).
Test [5] concerns Lung cancer (H1975) cells. Briefly: Xenograft model, combination with anti-cancer drug, tumor volume. It is filed as in vivo, BALB/c nude mice. To be noted: osimertinib 1 mg/kg oral twice a week alone. The method, then:
as §1
Lung cancer (H1975) cells (1×10^7) were inoculated into 5-week-old BALB/c nude mice on the back flank, and the mice were divided into three groups: the control group (Control), single oral administration of 1 mg/kg of osimertinib, and combination administration of osimertinib+10 mg/kg of ADP-ribose. When the tumors were grown to a volume of approximately 150 mm^3, osimertinib was administered orally twice a week, and ADP-ribose at 10 mg/kg was injected subcutaneously 3 times a week. The tumor size was measured using a digital caliper, and the results of changes in tumor volume were compared by the group.

Test [6] concerns Pancreatic cancer (AsPC-1) cells. Briefly: Cell death by combination treatment with anti-cancer drug (MTT). Format: cell-based. To be noted: Homo sapiens, ASPC1, 24 h; read-out: cancer cells survived (cell viability).
The subject of test [7] is Colon cancer (HCT116) cells. The description is as above. The note with it: Homo sapiens, HCT-116; HCT116, 5-FU 10 μM alone, 24 hours; read-out: cancer cells survived (cell viability). Format: cell-based.

What is called viability is a per cent measure of how many cells are alive, often set against a control. Turning to `CNC(=O)c1cc(Oc2ccc(NC(=O)Nc3ccc(Cl)c(C(F)(F)F)c3)cc2)ccn1` [sorafenib, reference compound], in test [1], the “final tumor volume lower than that of the control group” value (from here on “final tumor volume lower than that”) is “about 20%”. The final tumor volume entry in test [1] (control about 2322.4) was “about 1849.8 mm^3”. In test [2], the viability at 1 µM is about 49%.
Turning to “bevacizumab: anti-VEGF monoclonal antibody; Avastin (ingredient name: bevacizumab) [reference compound]”, the “final tumor volume lower than that” value in test [3] is “about 37%”. Moreover, in test [3] (control about 2527.1), the final tumor volume entry was “about 1598.9 mm^3”.
As to `C=CC(=O)Nc1cc(Nc2nccc(-c3cn(C)c4ccccc34)n2)c(OC)cc1N(C)CCN(C)C` [osimertinib, reference compound], in test [4], the viability at 0.001 µM is about 50%. Further, the “final tumor volume lower than that” value in test [5] is “about 17%”. Moreover, the final tumor volume result in test [5] (control about 2265.5) was “about 1881.9 mm^3”.
Turning to `Nc1ccn([C@@H]2O[C@H](CO)[C@@H](O)C2(F)F)c(=O)n1` [gemcitabine, reference compound], the viability at 1 µM in test [6] is about 54%.
For `O=c1[nH]cc(F)c(=O)[nH]1` [5-FU, 5-fluorouracil, reference compound], the viability at 10 µM in test [7] is about 51%.
